The source of these data is EP2253620B1, “SUBSTITUTED 3-CYANOQUINOLINES AS PROTEIN TYROSINE KINASES INHIBITORS” (Wyeth Holdings LLC, priority 1998, dated 2000).

Assay [1] deals with T1, epidermal growth factor receptor kinase (Homo sapiens, UniProt P00533).
T1 construct: containing the EGFR cDNA encoding amino acids 645 - 1186 preceded by Met-Ala-(His)6; made in house; host or cells: Sf9 insect cells, recombinant baculovirus vHcEGFR52
As to the kind of experiment: Inhibition of Epidermal Growth Factor Receptor Kinase (EGF-R) using recombinant enzyme. In kind it is biochemical. The conditions noted are these: averages of the individual determinations.
Description: Representative test compounds were evaluated for their ability to inhibit the phosphorylation of the tyrosine residue of a peptide substrate catalyzed by the enzyme epidermal growth factor receptor kinase. […] The enzyme used in this assay is the His-tagged cytoplasmic domain of EGFR. A recombinant baculovirus (vHcEGFR52) was constructed containing the EGFR cDNA encoding amino acids 645 - 1186 preceded by Met-Ala-(His)6. Sf9 cells in 100 mm plates were infected at an moi of 10 pfu/cell and cells were harvested 48 h post infection. A cytoplasmic extract was prepared using 1% Triton X-100 and applied to Ni-NTA column. After washing the column with 20 mM imidazole, HcEGFR was eluted with 250 mM imidazole (in 50 mM Na2HPO4, pH 8.0, 300 mM NaCl). Fractions collected were dialyzed against 10 mM HEPES, pH 7.0, 50 mM NaCl, 10% glycerol, 1ug/mL antipain and leupeptin and 0.1 mM Pefabloc SC. The protein was frozen in dry ice/methanol and stored -70°C.
Test compounds were made into 10 mg/mL stock solutions in 100% dimethylsulfoxide (DMSO). Prior to experiment, stock solutions were diluted to 500 uM with 100% DMSO and then serially diluted to the desired concentration with HEPES buffer (30 mM HEPES pH 7.4).
For the enzyme reaction, 10 µL of each inhibitor (at various concentrations) were added to each well of a 96-well plate. To this was added 3 µL of enzyme (1:10 dilution in 10mM HEPES, pH 7.4 for final conc. of 1:120). This was allowed to sit for 10 min on ice and was followed by the addition of 5 µl peptide (80 µM final conc.), 10 µl of 4X Buffer (Table A), 0.25 µL ^33P-ATP and 12 µL H2O. The reaction was allowed to run for 90 min at room temperature and was followed by spotting the entire volume on to precut P81 filter papers. The filter discs were washed 2X with 0.5% phosphoric acid and radioactivity was measured using a liquid scintillation counter.
The % inhibition of the test compound was determined for at least three different concentrations and the IC50 value was evaluated from the dose response curve. […] CPM(control) is in units of counts per minute and was a number expressing the amount of radiolabled ATP (g-^33P) incorporated into the RR-SRC peptide substrate by the enzyme after 90 minutes at room temperature in the absence of test compound as measured by liquid scintillation counting. The CPM values were corrected for the background counts produced by ATP in the absence of the enzymatic reaction. The IC50 values in TABLE 1 are averages of the individual determinations.

Assay [2] addresses Epithelial Cell Kinase (ECK) (Homo sapiens, UniProt P29317). Description: Inhibition of Epithelial Cell Kinase (ECK) tyrosine kinase activity. The assay is classed as biochemical. The method, then:
In this standard pharmacological test procedure, a biotinylated peptide substrate is first immobilized on neutravidin-coated microtiter plates. The test drug, the Epithelial Cell Kinase (ECK), Mg^++, sodium vanadate (a protein tyrosine phosphatase inhibitor), and an appropriate buffer to maintain pH (7.2) are then added to the immobilized substrate-containing microtiter wells. ATP is then added to initiate phosphorylation. After incubation, the assay plates are washed with a suitable buffer leaving behind phosphorylated peptide which is exposed to horse radish peroxidase (HRP)-conjugated anti-phosphotyrosine monoclonal antibody. The antibody-treated plates are washed again and the HRP activity in individual wells is quantified as a reflection of degree of substrate phosphorylation. […] Multiple entries for a given compound indication it was tested multiple times.

The next assay has as its target Mek and Erk (Homo sapiens, UniProt P28482+Q02750). Description: Mitogen Activated Protein Kinase (MAPK) coupled assay (Mek-Erk). The conditions noted are these: coupled MEK 1 / ERK2; separate entries = separate tests; read-out: Mek and Erk. In kind it is biochemical. The method, then: Mitogen Activated Protein Kinase (MAPK) Assay
To evaluate inhibitors of the MAP (mitogen activated protein) kinase a two component coupled standard pharmacological test procedure, which measures phosphorylation of a serine/threonine residue in an appropriate sequence in the substrate in the presence and absence of a putative inhibitor, was used. Recombinant human MEK 1 (MAPKK) was first used to activate recombinant human ERK2 (MAPK) and the activated MAPK (ERK) was incubated with substrate (MBP peptide or MYC peptide) in the presence of ATP, Mg^+2 and radiolabeled ^33P ATP. The phosphorylated peptide was captured on a P 81 phosphocellulose filter (paper filter or embedded in microtiter plate) washed and counted by scintillation methods.
The peptide substrates used in the assay are MBP, peptide substrate ([…]), or synthetic Myc substrate, ([…]•5 TFA. The recombinant enzymes used were prepared as GST fusion proteins of human ERK 2 and human MEK 1. Inhibitor samples were prepared as 10X stocks in 10% DMSO and an appropriate aliquot was used to deliver either 10 ug/ml for a single point screening dose or 100, 10, 1, and 0.1 uM final concentration for a dose response curve. Final DMSO concentrations were less than or equal to 1%.
The reaction was run as follows in 50 mM Tris kinase buffer, pH 7.4 in a reaction volume of 50 ul. The appropriate volume of kinase buffer and inhibitor sample was added to the tube. Appropriate dilution of enzyme was delivered to give 2-5 ug recombinant MAPK (Erk ) per tube. The inhibitor was incubated with MAPK (Erk) for 30 min at 0 deg. C. Recombinant Mek (MAPKK) ( 0.5-2.5 ug) or fully activated Mek (0.05-0.1 units) was added to activate the Erk and incubated for 30 min at 30° C. Then substrate and gamma ^33P ATP was were added to give a final concentration of 0.5- 1 mM MBPP or 250-500 uM Myc; 0.2-0.5 uCi gamma P 33 ATP/tube; 50 µM ATP final concentration. Samples were incubated at 30°C for 30 minutes and the reaction was stopped by adding 25 µl of ice cold 10 %TCA .After samples were chilled on ice for 30 min, 20 µl of sample was transferred onto P 81 phosphocellulose filter paper or appropriate MTP with embedded P 81 filter. Filter papers or MTP were washed 2 times with a large volume of 1% acetic acid, then 2 times with water. The filters or MTP were briefly air dried before addition of scintillant and samples were counted in the appropriate scintillation counter set up for reading ^33P isotope. Samples included a positive control (activated enzyme plus substrate); a no enzyme control; a no substrate control; samples with different concentrations of putative inhibitor; and samples with reference inhibitors (other active compounds or non-specific inhibitors such as staurosporine or K252 B).
The raw data was captured as cpm. Sample replicates were averaged and corrected for background count. Mean cpm data was tabulated by group and % inhibition by a test compound was calculated as (corrected cpm control- corrected. cpm sample/control) X 100 = % inhibition. […] The results obtained for representative compounds of this invention are listed in TABLE 2 where there may be separate entries for the same compound; this is an indication that the compound was evaluated more than one time.

The target in another assay is erbB2 (Homo sapiens, UniProt P04626). Description: erbB2 inhibition at a single concentration. The conditions noted are these: read-out: erbB2 % Inh 2 µg/mL. In kind it is biochemical.
Chain of erbB2 (P04626 23-1255): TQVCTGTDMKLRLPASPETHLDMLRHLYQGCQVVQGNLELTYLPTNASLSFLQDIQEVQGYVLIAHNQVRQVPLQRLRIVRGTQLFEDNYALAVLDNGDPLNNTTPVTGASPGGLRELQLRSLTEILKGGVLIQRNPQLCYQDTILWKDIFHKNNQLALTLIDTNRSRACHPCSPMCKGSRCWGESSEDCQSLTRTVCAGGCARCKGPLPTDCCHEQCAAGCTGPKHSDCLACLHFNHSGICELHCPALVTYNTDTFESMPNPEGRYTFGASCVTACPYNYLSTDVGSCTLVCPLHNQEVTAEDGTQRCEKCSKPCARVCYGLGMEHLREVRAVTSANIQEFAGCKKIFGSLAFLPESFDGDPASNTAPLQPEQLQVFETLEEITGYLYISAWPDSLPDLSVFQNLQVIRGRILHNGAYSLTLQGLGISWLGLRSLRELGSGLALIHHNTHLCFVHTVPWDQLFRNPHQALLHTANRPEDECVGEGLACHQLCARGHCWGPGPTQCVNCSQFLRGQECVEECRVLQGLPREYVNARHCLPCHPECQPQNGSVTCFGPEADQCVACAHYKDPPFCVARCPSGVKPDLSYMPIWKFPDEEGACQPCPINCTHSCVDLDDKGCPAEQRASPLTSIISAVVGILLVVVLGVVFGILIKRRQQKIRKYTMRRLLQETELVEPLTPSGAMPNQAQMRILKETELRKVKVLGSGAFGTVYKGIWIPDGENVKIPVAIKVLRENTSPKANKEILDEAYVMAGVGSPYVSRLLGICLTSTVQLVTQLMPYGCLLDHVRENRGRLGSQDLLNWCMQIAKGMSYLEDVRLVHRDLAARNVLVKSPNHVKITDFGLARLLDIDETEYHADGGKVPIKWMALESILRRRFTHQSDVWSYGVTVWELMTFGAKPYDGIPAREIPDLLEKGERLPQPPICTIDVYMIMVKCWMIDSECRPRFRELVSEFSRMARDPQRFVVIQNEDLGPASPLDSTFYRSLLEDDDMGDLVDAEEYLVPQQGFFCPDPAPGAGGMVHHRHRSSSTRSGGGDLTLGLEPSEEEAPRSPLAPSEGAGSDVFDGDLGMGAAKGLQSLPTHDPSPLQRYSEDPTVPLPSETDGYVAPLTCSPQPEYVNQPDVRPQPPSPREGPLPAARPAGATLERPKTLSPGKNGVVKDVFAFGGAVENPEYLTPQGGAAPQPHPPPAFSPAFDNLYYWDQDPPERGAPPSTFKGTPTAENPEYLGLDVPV
The subject of a further assay is A431. Description: Inhibition of Cancer Cell Growth as Measured by Cell Number. In kind it is cell-based, Human. The conditions noted are these: Homo sapiens, A-431; 48 hours exposure, Sulforhodamine B. The method, then: (§1) Inhibition of Cancer Cell Growth as Measured bv Cell Number
(§2) Human tumor cell lines were plated in 96-well plates (250 µl/well, 1-6 x 10^4 cells/ml) in RPMI 1640 medium, containing 5% FBS (Fetal Bovine Serum). […] After 48 hours exposure to test compounds, cells were fixed with trichloroacetic acid, and stained with Sulforhodamine B. After washing with trichloroacetic acid, bound dye was solubilized in 10 mM Tris base and optical density was determined using plate reader. Under conditions of the assay the optical density is proportional to the number of cells in the well. […] The test procedure is described in details by Philip Skehan et. al, J.Natl. Canc. Inst., 82, 1107-1112 (1990). […] Information about some of the cell lines used in these test procedures is available from the American Type Tissue Collection: Cell Lines and Hybridomas, 1994 Reference Guide, 8th Edition.

For a further assay, the system named is MDAMB435. The assay is described as above. In kind it is cell-based, Human. The conditions noted are these: Homo sapiens, MDA-MB-435; 48 hours exposure, Sulforhodamine B. The method, then: as §1, §2
For another assay, the system named is SKBR3. The description is as above. In kind it is cell-based, Human. The conditions noted are these: Homo sapiens, SK-BR-3; 48 hours exposure, Sulforhodamine B. The protocol:
as §1, §2

The next assay has as its system SW620. The description is as above. In kind it is cell-based, Human. The conditions noted are these: Homo sapiens, SW-620; 48 hours exposure, Sulforhodamine B. The method, then:
as §1, §2

In another assay the test system is 3T3. The assay is described as above. In kind it is cell-based. The conditions noted are these: Mus musculus, NIH3T3; 48 hours exposure, Sulforhodamine B. The protocol: as §1, §2
The next assay has as its system Her2/3T3. The description is as above. The conditions noted are these: 48 hours exposure, Sulforhodamine B. In kind it is cell-based. The protocol:
as §1, §2

Converted amounts (≈) assume the structure as drawn. Read-outs that look alike come from different tables or passages of the source. A value given as a limit tells only on which side of the number the result lay.

Chain of Epithelial Cell Kinase (ECK) (P29317 24-976, species assumed): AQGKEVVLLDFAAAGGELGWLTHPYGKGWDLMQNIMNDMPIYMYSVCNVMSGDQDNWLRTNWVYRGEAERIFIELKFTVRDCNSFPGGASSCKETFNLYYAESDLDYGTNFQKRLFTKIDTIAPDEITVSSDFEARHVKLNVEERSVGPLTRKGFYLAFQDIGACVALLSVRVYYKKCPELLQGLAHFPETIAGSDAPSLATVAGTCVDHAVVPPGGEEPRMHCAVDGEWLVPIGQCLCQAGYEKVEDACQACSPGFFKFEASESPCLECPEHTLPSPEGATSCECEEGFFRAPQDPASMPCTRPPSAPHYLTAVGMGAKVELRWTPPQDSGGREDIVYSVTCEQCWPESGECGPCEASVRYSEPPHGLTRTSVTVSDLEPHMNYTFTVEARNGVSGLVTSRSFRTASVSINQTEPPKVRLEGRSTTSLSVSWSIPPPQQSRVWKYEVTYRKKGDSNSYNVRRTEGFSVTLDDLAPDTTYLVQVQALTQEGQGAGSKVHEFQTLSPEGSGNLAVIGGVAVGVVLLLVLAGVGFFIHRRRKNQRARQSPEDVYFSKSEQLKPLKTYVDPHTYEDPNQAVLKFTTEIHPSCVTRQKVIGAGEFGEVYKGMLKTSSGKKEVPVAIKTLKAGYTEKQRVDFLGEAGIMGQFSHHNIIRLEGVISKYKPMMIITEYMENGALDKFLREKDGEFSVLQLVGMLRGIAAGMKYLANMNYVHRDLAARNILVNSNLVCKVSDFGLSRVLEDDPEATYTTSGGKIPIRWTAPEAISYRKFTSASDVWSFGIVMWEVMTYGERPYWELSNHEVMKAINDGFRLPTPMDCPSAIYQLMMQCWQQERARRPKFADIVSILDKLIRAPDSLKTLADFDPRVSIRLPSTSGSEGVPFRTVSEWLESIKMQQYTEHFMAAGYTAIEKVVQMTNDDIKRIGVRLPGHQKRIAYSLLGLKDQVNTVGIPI
T1 sequence (P00533 669-1210): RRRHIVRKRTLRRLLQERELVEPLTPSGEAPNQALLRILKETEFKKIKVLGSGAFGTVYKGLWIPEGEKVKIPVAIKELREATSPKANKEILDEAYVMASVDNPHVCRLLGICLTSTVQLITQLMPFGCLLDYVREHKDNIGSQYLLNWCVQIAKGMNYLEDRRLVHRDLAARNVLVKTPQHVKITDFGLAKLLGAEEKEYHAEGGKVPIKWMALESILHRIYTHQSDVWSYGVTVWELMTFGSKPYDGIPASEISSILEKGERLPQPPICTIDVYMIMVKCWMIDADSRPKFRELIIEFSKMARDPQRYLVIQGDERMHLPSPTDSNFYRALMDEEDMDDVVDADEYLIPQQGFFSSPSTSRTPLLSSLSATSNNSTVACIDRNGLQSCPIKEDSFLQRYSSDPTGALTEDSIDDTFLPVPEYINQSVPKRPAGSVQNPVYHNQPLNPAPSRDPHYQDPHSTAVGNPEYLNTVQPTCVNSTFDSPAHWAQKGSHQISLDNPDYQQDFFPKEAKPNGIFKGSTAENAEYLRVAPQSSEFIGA
Chain of Mek and Erk (Q02750 whole entry): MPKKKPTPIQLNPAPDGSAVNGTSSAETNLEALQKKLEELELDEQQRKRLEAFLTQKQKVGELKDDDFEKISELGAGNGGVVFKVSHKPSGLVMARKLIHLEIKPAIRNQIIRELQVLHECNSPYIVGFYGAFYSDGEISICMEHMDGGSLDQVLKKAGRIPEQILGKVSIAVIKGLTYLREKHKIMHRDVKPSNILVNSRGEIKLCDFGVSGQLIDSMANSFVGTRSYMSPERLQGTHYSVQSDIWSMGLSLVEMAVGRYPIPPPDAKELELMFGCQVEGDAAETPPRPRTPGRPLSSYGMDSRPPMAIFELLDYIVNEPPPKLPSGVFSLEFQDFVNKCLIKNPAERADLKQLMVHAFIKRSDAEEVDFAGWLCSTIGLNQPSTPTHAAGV
Chain of Mek and Erk (P28482 2-360): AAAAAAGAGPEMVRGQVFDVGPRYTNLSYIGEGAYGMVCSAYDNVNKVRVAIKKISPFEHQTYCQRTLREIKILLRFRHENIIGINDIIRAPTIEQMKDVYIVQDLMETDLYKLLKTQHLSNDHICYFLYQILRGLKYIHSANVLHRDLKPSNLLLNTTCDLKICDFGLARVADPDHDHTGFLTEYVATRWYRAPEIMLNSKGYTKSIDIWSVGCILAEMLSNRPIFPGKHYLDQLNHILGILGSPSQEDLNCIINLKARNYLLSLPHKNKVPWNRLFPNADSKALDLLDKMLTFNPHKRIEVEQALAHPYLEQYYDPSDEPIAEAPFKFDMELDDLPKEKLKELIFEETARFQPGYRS

`COCCOCC#CC(=O)Nc1ccc2ncc(C#N)c(Nc3cccc(Br)c3)c2c1` [Example 72, 4-(2-Methoxy-ethoxy)-but-2-ynoic acid [4-(3-bromo-phenylamino)-3-cyano-quinolin-6-yl]-amide]: the IC50 in [1] was 0.006 µM; in assay [2] it was more than 41.7 µM; on Mek and Erk it was more than 100 µM; in the assay on A431, 0.9 µg/mL (≈ 1.88 µM); in the assay on MDAMB435, 3.5 µg/mL (≈ 7.3 µM); in the assay with SKBR3, 0.8 µg/mL (≈ 1.67 µM). In the assay with SW620, the IC50 amounted to 0.4 µg/mL (≈ 0.834 µM). In addition, at erbB2, the inhibition at 2 µg/mL amounted to 96%.

For the compound `C=CCN(C)CC#CC(=O)Nc1ccc2ncc(C#N)c(Nc3cccc(Br)c3)c2c1` [Example 77, N-[4-[(3-Bromophenyl)amino]-3-cyano-6-quinolinyl]-4-(N-allyl-N-methylamino)-2-butynamide], the IC50 is 0.006 µM in assay [1]; 42.2 µM in assay [2] (IC50 = concentration that inhibits substrate phosphorylation by 50%); more than 100 µM on Mek and Erk; 0.03 µg/mL (≈ 0.0632 µM) in the assay on A431; 0.1 µg/mL (≈ 0.211 µM) with MDAMB435; 0.02 µg/mL (≈ 0.0422 µM) with SKBR3. This compound also yielded an IC50 in the assay on SW620 of 0.1 µg/mL (≈ 0.211 µM). At erbB2, the inhibition at 2 µg/mL came to 105%.

On to `COC[C@@H]1CCCN1CC=CC(=O)Nc1cc2c(Nc3ccc(F)c(Cl)c3)c(C#N)cnc2cc1OC.Cl.Cl` [Example 90, (S)-4-(2-Methoxymethyl-pyrrolidin-1-yl)-but-2-enoic acid [4-(3-chloro-4-fluoro-phenylamino)-3-cyano-7-methoxy-quinolin-6-yl]-amide dihydrochloride], for which the IC50 in the assay on A431 came out at 0.234 µg/mL; with MDAMB435 it was 1.74 µg/mL; in the assay with SKBR3, 0.148 µg/mL; in the assay with SW620, 1.24 µg/mL; in the assay with 3T3, 2.1 µg/mL; in the assay with Her2/3T3 it was 0.329 µg/mL.
